# From patent US12610952B2, “Antimicrobial compositions and methods” (EVOQ NANO, INC., priority 2014, dated 2026)
# System: E. coli, ATCC #51813
# Assay: Antibacterial efficacy test, ATP Relative Light Unit (RLU) counts
# Type: cell-based
# Description: The NIST nanoparticles are formed by a chemical reduction process that utilizes citrate as reducing and capping agent.
# Relative Light Unit (RLU) counts were recorded at 12 hours and 24 hours post treatment. RLU measurements were carried out using a Hygiena SystemSURE Plus V.2 SN067503 RLU meter with Hygenia AquaSnap TOTAL ATP Water Test Cat #U143 Lot #153019. Culturing media was Hardy Diagnostics Buffered Peptone Water Lot #118272. Samples were prepared with the nanoparticle treatments and then diluted with the media to provide the tested concentrations. The test organism (Microbiologics, E. coli, KwikStik, ATCC #51813, Ref #0791 K, Lot #791-1-6) was incubated in fresh Buffered Peptone Water growth media for 24 hours prior to exposure to the nanoparticle treatments.
smiles,measurement,setting,value
"O=[N+]([O-])[O-].[Ag+] [AgNO3 Silver Nitrate, silver nitrate]",RLU Counts at 12 Hours Post Exposure,0.25 ppm (mg/L),80 RLU
same,RLU Counts at 24 Hours Post Exposure,0.25 ppm (mg/L),25 RLU
same,RLU Counts at 12 Hours Post Exposure,0.5 ppm (mg/L),75 RLU
same,RLU Counts at 24 Hours Post Exposure,0.5 ppm (mg/L),46 RLU
same,RLU Counts at 12 Hours Post Exposure,1.0 ppm (mg/L),84 RLU
same,RLU Counts at 24 Hours Post Exposure,1.0 ppm (mg/L),30 RLU
